In patent US9662347B2, “Method for inhibiting the induction of cell death by inhibiting the synthesis or secretion of age-albumin in cells of the mononuclear phagocyte system” (Gachon University of Industry-Academic Cooperation …, priority 2010, dated 2017):

Key:
[1] = test system: α-synuclein, TNF-α and AGE-albumin in human microglial cells; format: cell-based; details: for expression level of α-synuclein or TNF-α in human microglial cells: PCR and immunoblotting; for expression level of AGE-albumin: irrespective of rotenone treatment
Description: Human microglial cells were cultured at 37° C. in DMEM (Gibco, 10% FBS (Gibco), 0.1% gentamicin (Gibco), a high concentration of glucose) at 37° C. in a 5% CO2 incubator. Then, the microglial cells were exposed to rotenone (Sigma, 1 nM), a causative agent of Parkinson's disease, for 10 days or to 6-hydroxydopamine (6-OHDA) for 24 hrs to prepare a cell model of Parkinson's disease.
α-Synuclein or TNF-α is present at a high level in the brain tissue of Parkinson's disease patients.

[2] = test system: AGE-albumin, RAGE, and Bax in mouse brain tissues; assay: Rotenone mouse model, fluoroimmunostaining of AGE-albumin, RAGE and Bax in brain tissues; format: in vivo; details: versus rotenone alone; one week and one month
Description: (§2) The animal models of Parkinson's disease were anaesthetized with ketamine (0.75 mg/kg body weight) and rompun (0.2 mg/kg body weight) prior to surgical procedures. For in vivo treatments, phosphate buffered saline (PBS) and sRAGE (10 ng/μL) were dissolved at a concentration of 1 mM in sterile water and kept at 4° C. until use. The head was fixed on a stereotaxic instrument before a midline incision of the scalp skin was made. The skull was pierced with a biological electric drill at the bregma (posteriorly, 0.3 mm; laterally, 2 mm) and the needle (gauge 26) on a 10-μL Hamilton syringe was lowered vertically until it reached the target area (depth, 2.5 mm). Three microliters of sRAGE were injected slowly at the rate of 1 μL per minute with an automatic microinjector. Thereafter, the syringe was removed slowly and surgical wounds were sutured with wound clips followed by topical treatment with antibiotics. For control, PBS was injected into the entorhinal cortex of normal mice.
Most mice were bred for one week and one month after injection of sRAGE. During the breeding, oral administration of rotenone still continued. Afterwards, all mice were re-anaesthetized in the same manner, and perfused transcardially with 100˜200 mL of heparinized saline at 18° C. followed by 400 mL of 4% paraformaldehyde-lysine periodate in 0.1 M sodium phosphate buffer (pH, 7.4). […]

[3] = test system: rotenone-mediated neuronal cell death; assay: Rotenone mouse model, number of neuronal cells in brain tissues (cresyl violet staining); format: in vivo; details: rotenone mice; for level of cell death in mouse brain tissues: substance injected into brain, one week and one month, compared to PBS
Description: CBL57/bL6 mice, each weighing 20-25 g, were used as experimental animals. The mice were maintained on a 12-h light-dark cycle, allowed to have access to food and water ad libitum, and acclimated for at least 1 week prior to usage. All animal experiments were approved by the Institute Animal Care and Use Committee, and were conducted humanely.
as §2
Most mice were bred for one week and one month after injection of sRAGE. During the breeding, oral administration of rotenone still continued. Afterwards, all mice were re-anaesthetized in the same manner, and perfused transcardially with 100˜200 mL of heparinized saline at 18° C. followed by 400 mL of 4% paraformaldehyde-lysine periodate in 0.1 M sodium phosphate buffer (pH, 7.4). The brains were removed, placed in the same fixative for 4 hrs at 4° C., and then transferred into ice-cold 0.1 M phosphate-buffered saline (PBS) containing 20% sucrose. […]
The relative levels of neurons in mouse brain tissues were evaluated by cresyl violet staining after PBS, rotenone, or rotenone/sRAGE administration for one week and one month before microscopy.

[4] = test system: AGE-albumin in human microglial cells (HMO6); assay: Synthesis and secretion of AGE-albumin in human microglial cells (co-immunoprecipitation, ELISA, immunoblot); format: cell-based; details: for amount / expression level of AGE-albumin (immunoblot): 0˜1000 μM H2O2, ascorbic acid irrespective of Aβ1-42 treatment
Description: (§1) For in vitro studies, the immortalized human microglial cell line HMO6 was used. HMO6 cells were grown in Dulbecco's modified Eagle's medium (DMEM, Gibco) containing a high glucose concentration, supplemented with 10% heat-inactivated fetal bovine serum (FBS, Gibco) and […] gentamycin (Sigma-Aldrich). These cells were maintained at 37° C. under 5% CO2. HMO6 cells were exposed to Aβ1-42 (Sigma-Aldrich) at concentrations from 0 to 400 nM. HMO6 cells were then harvested 6 hrs after Aβ1-42 treatment for further analysis.
Whole human microglial cell lysates prepared before and after Aβ 1-42 treatment were subjected to immunoblotting analysis. In this regard, whole cell lysates from human microglial cells before and after treatment with 0˜400 nM Aβ 1-42 were prepared with a RIPA (radioimmunoprecipitation assay) buffer containing 1 M Tris (pH 7.5), 5 M NaCl, 10% NP-40, 10% deoxycholate and a protease inhibitor cocktail (Calbiochem). All cell lysates (1 mg protein) were incubated overnight at 4° C. with 5 mg of anti-AGE (Abcam)-conjugated sepharose beads in […] of PBS. The sepharose beads were precipitated by centrifugation at 14,000 rpm for 5 min, and washed three times with 1 mL of washing buffer containing 50 mM Tris-Cl and 500 mM NaCl (pH 8.0). The IgG-bound antigen-antibody complex was resolved on a 4-12% polyacrylamide gel (Invitrogen), followed by immunoblot analysis with the respective antibodies (1:1000, Abcam).
After removal of already synthesized albumin by use of an anti-albumin antibody, intracellular and extracellular (secreted into culture media) levels of AGE-albumin were measured using ELISA. For this, human microglial cells were treated with 0-400 nM Aβ1-42, after which the culture media (0.1 mg protein) were harvested. Separately, the cells were lyzed to prepare cell lysates (0.5 mg protein). […] Following the addition of HRP-conjugated anti-mouse secondary antibody (1:1000, Vector Laboratories) to each well, color was developed with TMB (3,3′,5,5′-tetramethylbenzidine), and reaction was stopped with an equal volume of 2 M H2SO4. Absorbance at 450 nm was read on an ELISA plate reader (VERSA Max, Molecular Devices).
Aβ1-42 is known to accumulate over a long period of time by oxidative stress.

[5] = test system: AGE-albumin in human microglial cells; assay: AGE-albumin in human microglial cell model of stroke (oxygen and glucose deprivation); format: cell-based; details: for amount / expression level of AGE-albumin in stroke model cells (immunoblot): 0˜1000 μM H2O2, ascorbic acid irrespective of hypoxia and glucose deprivation; for expression level of AGE-albumin in stroke model cells: 0, 50, 200, 500, 2000 ng/mL, hypoxic and glucose-deprived
Description: Human microglial cells were cultured at 37° C. in DMEM (Gibco, 10% FBS (Gibco), 0.1% gentamicin (Gibco), a high concentration of glucose) at 37° C. in a 5% CO2 incubator. Then, the microglial cells were exposed to glucose-free DMEM for 1 hr within a hypoxic (5% CO2 and 95% N2) chamber (Billups-Rothenberg, Del Mar, Calif.) to prepare a cell model of stroke.
Human microglial cell models of stroke were treated with HMGB1, which is known to secrete most abundantly upon stroke to excite microglial cells. Expression levels of AGE-albumin in the human microglial cell model of stroke were quantitated at various concentrations (0, 50, 200, 500, 2000 ng/mL) of HMGB1 using immunohistochemistry (IHC), ELISA, and immunoblotting.
A Human microglial cell model of stroke was exposed to various concentrations (0, 50, 200, 500, 2000 ng/mL) of the HMGB1 inhibitor glycyrrhizic acid, and quantitatively analyzed for AGE-albumin using ELISA and immunoblotting.

[6] = test system: AGE-albumin in human microglial cells and rat brain tissues; assay: Distribution and density of AGE-albumin after Aβ1-42 treatment (immunostaining, confocal microscopy); format: cell-based
Description: as §1
Cells were grown on Lab-Tek II slide chambers (Nunc), rinsed with PBS, fixed in methanol for 15 min, and rinsed again with PBS. […] After washing the secondary antibodies with PBS three times at regular intervals of 10 min, coverslips were mounted onto glass slides using the Vectashield mounting medium (Vector Laboratories), and examined under a laser confocal fluorescence microscope (LSM-710, Carl Zeiss).
Immunohistochemistry was conducted on murine brain tissues from normal or Alzheimer's disease rats, and human brain tissues from normal adults and Alzheimer's disease individuals [S. M. Ahn et al., PLoS ONE 3, e2829 (2008)]. […] After washing the secondary antibodies three times with PBS, coverslips were mounted onto glass slides using the Vectashield mounting medium (Vector Laboratories), and observed under a laser confocal fluorescence microscope (LSM-710, Carl Zeiss). […]

[7] = test system: AGE-albumin in mouse blood monocytes; assay: AGE-albumin in mouse blood monocytes (immunostaining); format: cell-based; details: compared to non-treated cells

In the case of `NCCc1cc(O)c(O)cc1O` [6-hydroxydopamine], the “expression level of α-synuclein or TNF-α in human microglial cells” value [1] is reported as “increased”.

In the case of `N[C@@H](C(=O)N[C@@H]1C(=O)N2C(C(=O)O)=C(Cl)CS[C@H]12)c1ccccc1` [C-20, Cefaclor], the “AGE, albumin, Iba1, AGE-albumin, RAGE, and Bax expression / positive cells in mouse brain tissues” value [2] is reported as “reduced”, the “level of cell death in mouse brain tissues” value [3] is reported as “significantly reduced level of cell death” and the “number of neurons in the injected region versus the non-injected region” value ([3]; predominant recovery in the substantia nigra) is reported as “higher number of neurons”.

For `CC(=O)OCC1=C(C(=O)O)N2C(=O)[C@@H](NC(=O)Cc3cccs3)[C@H]2SC1` [C-21, Cephalothin sodium], the “AGE, albumin, Iba1, AGE-albumin, RAGE, and Bax expression / positive cells in mouse brain tissues” value [2] was “reduced” and the “level of cell death in mouse brain tissues” value [3] was “significantly reduced level of cell death”.

In the case of `O=C1O[C@H]([C@@H](O)CO)C(O)=C1O` [ascorbic acid], the “amount / expression level of AGE-albumin (immunoblot)” value [4] is reported as “drastically reduced”, the “expression level of AGE-albumin” value [1] is reported as “drastically reduced” and the “amount / expression level of AGE-albumin in stroke model cells (immunoblot)” value [5] is reported as “drastically reduced”.

In the case of `C=C1[C@@H](C)[C@H]2[C@H](Cc3ccccc3)NC(=O)[C@]23[C@H](OC(C)=O)/C=C/[C@@](C)(O)C(=O)[C@@H](C)C/C=C/[C@H]3[C@@H]1O` [cytochalasin D], the “expression level of AGE-albumin” value [1] is reported as “drastically reduced”.

For `CC1(C)[C@@H](O[C@H]2O[C@H](C(=O)O)[C@@H](O)[C@H](O)[C@H]2O[C@@H]2O[C@H](C(=O)O)[C@@H](O)[C@H](O)[C@H]2O)CC[C@]2(C)[C@H]3C(=O)C=C4[C@@H]5C[C@@](C)(C(=O)O)CC[C@]5(C)CC[C@@]4(C)[C@]3(C)CC[C@@H]12` [glycyrrhizic acid], the “expression level of AGE-albumin in stroke model cells” value [5] was “significantly decreased with an increase in the concentration”.

In the case of `OO` [hydrogen peroxide], the “amount / expression level of AGE-albumin (immunoblot)” value [4] is reported as “increased in a concentration-dependent manner”, the “amounts of both α-synuclein and AGE-albumin” value ([1]; sequentially exposed to rotenone and H2O2 0˜1000 μM) is reported as “increased in a concentration-dependent manner” and the “amount / expression level of AGE-albumin in stroke model cells (immunoblot)” value [5] is reported as “increased in a concentration-dependent manner”.

For `C=C(C)[C@H]1Cc2c(ccc3c2O[C@@H]2COc4cc(OC)c(OC)cc4[C@@H]2C3=O)O1` [rotenone], the “expression level of AGE-albumin in both cell lysate and cell culture medium” value ([1]; 1 nM rotenone) was “increased” and the “expression level of α-synuclein or TNF-α in human microglial cells” value [1] was “increased”.

“Aβ1-42: amyloid beta 1-42 (Sigma-Aldrich), activator of microglial cells” was tested, and the “expression level of AGE-albumin in human microglial cells (co-immunoprecipitation)” value ([4]; 0˜400 nM Aβ1-42) was “increased with an increase in the concentration”, the “level of AGE-albumin in human microglial cell lysates (ELISA)” value ([4]; compared to non-treated lysates) was “significant increase” and the “expression level of AGE-albumin (immunostaining)” value ([6]; human microglial cells and rat brain tissue (cerebral cortex) after exposure to Aβ1-42) was “remarkable elevation”. The “densities of AGE-albumin” value ([6]; microglial cells and rat brain tissues after versus before Aβ1-42 treatment) was “remarkably higher” and the “expression level of AGE-albumin in mouse blood monocytes” value [7] was “higher expression level”.

B1: HMGB1: high motility group protein B1, excites microglial cells upon stroke (protein, UniProt P09429 1-215, looked up)
High mobility group protein B1: MGKGDPKKPRGKMSSYAFFVQTCREEHKKKHPDASVNFSEFSKKCSERWKTMSAKEKGKFEDMAKADKARYEREMKTYIPPKGETKKKFKDPNAPKRPPSAFFLFCSEYRPKIKGEHPGLSIGDVAKKLGEMWNNTAADDKQPYEKKAAKLKEKYEKDIAAYRAKGKPDAAKKGVVKAEKSKKKKEEEEDEEDEEDEEEEEDEEDEDEEEDDDDE
For B1, the “expression level of AGE-albumin in stroke model cells” value [5] was “significantly increased with an increase in the concentration”.
